# According to patent US20240408100A1, “TREATMENT METHODS FOR SUBJECTS HAVING CANCER WITH A DYSREGULATED MAPK AND/OR PI3K PATHWAY” (TAIHO PHARMACEUTICAL CO., LTD., priority 2021, published 2024):
# Columns and labels:
# [1] = test system: ER+/HER2− breast cancer cell lines; experiment: immunoblotting, combination with fulvestrant, presence and absence of estrogen and NF1; format: cell-based
# Protocol: The actual standard of care for ER+/HER2− breast cancer uses the adjuvant therapies such as tamoxifen, letrozole, or fulvestrant. Patients with recurrent or refractory tumors are treated with additional use of CDK4/6 inhibitors or Alpelisib for PIK3CA-mutated cancers.
# BT483 = experiment: growth inhibition assay, NF1 mutant cell line; format: cell-based; details: Homo sapiens, BT-483; BT483, ER+ breast, NF1 p.R1204W
# Source text: (§1) In order to investigate the growth inhibitory effect of Compound (1) in NF1 mutant cancer cell lines, the IC50 values of growth inhibition assay were obtained and compared then in Table 2.
# (§2) In this experiment, to compare the growth inhibitory effect of Compound (1) with those of MAPK and PI3K signaling inhibitors, the IC50 values of trametinib (as a MEK inhibitor), and Alpelisib (as a PI3K inhibitor) were obtained and compared.
# H1838 = experiment: growth inhibition assay, NF1 mutant cell line; format: cell-based; details: Homo sapiens, NCI-H1838; H1838, lung, NF1 p.N184Qfs*17
# Source text: as §1, §2
# HCC202 = experiment: growth inhibition assay, NF1 mutant cell line; format: cell-based; details: HCC202, HER2+ breast, NF1 p.X465_splice
# Source text: as §1, §2
# HCT116 = experiment: growth inhibition assay, NF1 mutant cell line; format: cell-based; details: Homo sapiens, HCT-116; HCT116, colon, NF1 p.P678Rfs*10, p.P388T
# Source text: as §1, §2
# MDA-MB-175VII = experiment: growth inhibition assay, NF1 mutant cell line; format: cell-based; details: Homo sapiens, ER+ breast, NF1 p.1679Dfs*21
# Source text: as §1, §2
# MDA-MB-231 = experiment: growth inhibition assay, NF1 mutant cell line; format: cell-based; details: Homo sapiens; MDA-MB-231, TN breast, NF1 p.T467Hfs*3
# Source text: as §1, §2
# MeWo = experiment: growth inhibition assay, NF1 mutant cell line; format: cell-based; details: Homo sapiens, melanoma, NF1 p.Q1336*
# Source text: as §1, §2
# RKO = experiment: growth inhibition assay, NF1 mutant cell line; format: cell-based; details: Homo sapiens, colon
# Source text: as §1, §2
# NF1 mutant cell lines = experiment: growth inhibition assay, summary over the panel; format: cell-based; details: range over the cell lines of Table 2; read-out: IC50 values, range over NF1 mutant cell lines
# Source text: as §1, §2
# [2] = test system: MCF7 cells (control and NF1 knockdown); experiment: immunoblotting of target inhibition and apoptosis induction; format: cell-based, human
# Protocol: To investigate the mechanism of action of Compound (1) in inhibiting the growth of NF1 knockdown breast cancer cells, Compound (1), trametinib, Alpelisib, and fulvestrant were exposed to NF1-knockdown MCF7 and T47D cells at indicated final concentration for 24 hours. NF1, pPRAS40 Thr246, pYB1 Ser102, pS6RP Ser235/236, ERα, and cleaved PARP were detected by immunoblotting.
# LS180 = experiment: 3-day growth inhibition assay; format: cell-based; details: Homo sapiens; LS180 (Colon), KRAS p.G12D, PIK3CA p.H1047R, PTEN p.I67K; read-out: Growth inhibition (IC50: nmol/L)
# Protocol: (§3) The IC50 values for each compound in cell lines used in a series of animal experiments evaluating the antitumor effects of Compound (1) on KRAS mutant tumor xenografts were determined by a 3-day growth inhibition assay (Table 7).
# LU65 = experiment: 3-day growth inhibition assay; format: cell-based; details: Homo sapiens, Lu-65; LU65 (NSCLC), KRAS p.G12C; read-out: Growth inhibition (IC50: nmol/L)
# Protocol: as §3
# SW1573 = experiment: 3-day growth inhibition assay; format: cell-based; details: Homo sapiens; SW1573 (NSCLC), KRAS p.G12C, PIK3CA p.K111E; read-out: Growth inhibition (IC50: nmol/L)
# Protocol: as §3
# [3] = test system: SW1573 human lung tumor xenografts; details: 30 mg/kg/day
# [4] = test system: LU65 human lung tumor xenografts; experiment: antitumor effect in mice with LU65 xenograft tumors; details: 30 mg/kg/day
# Protocol: The tumor volumes and body weights of animals were recorded.
# AsPC-1 = experiment: 3-day growth inhibition assay; format: cell-based; details: Homo sapiens, ASPC1; AsPC-1 (Pancreas), KRAS p.G12D; read-out: Growth inhibition (IC50: nmol/L)
# Protocol: as §3
# [5] = test system: LS180 human colorectal tumor xenografts; experiment: antitumor effect in mice with LS180 xenograft tumors; format: in vivo; details: 1 mg/kg/day
# Protocol: The oncogenic KRAS mutations are diverse, including not only G12C but also G12X and G13X in the mutation hotspot Glycine at […]. To determine whether Compound (1), which targets downstream of MAPK and PI3K signaling, is effective against G12D mutated cancers, an efficacy experiment of Compound (1) was conducted using subcutaneously transplanted LS180 tumor derived from colorectal cancers with KRAS G12D and PIK3CA and PTEN gene alterations.
# Evaluation was conducted by comparing the efficacy of 80 mg/kg/day of Compound (1) with that of 1 mg/kg/day MEK inhibitor trametinib used as a reference group.
# [6] = test system: AsPC-1 human pancreatic tumor xenografts; details: 1 mg/kg/day
# Protocol: All treatments were administered every day by oral gavage. The tumor volumes and body weights of animals were recorded.
Structure (SMILES),IC50 (BT483) [nM],IC50 (H1838) [nM],IC50 (HCC202) [nM],IC50 (HCT116) [nM],IC50 (MDA-MB-175VII) [nM],IC50 (MDA-MB-231) [nM],IC50 (MeWo) [nM],IC50 (RKO) [nM],IC50 (NF1 mutant cell lines) [nM],IC50 (LS180) [nmol/L],IC50 (LU65) [nmol/L],IC50 (SW1573) [nmol/L],also measured
C[C@]12CC[C@@H]3c4ccc(O)cc4C[C@@H](CCCCCCCCC[S+]([O-])CCCC(F)(F)C(F)(F)F)[C@H]3[C@@H]1CC[C@@H]2O (some centres unmarked) [fulvestrant],,,,,,,,,,,,,"apoptosis induction ([1]; single agent, presence or absence of estrogen, NF1 wildtype and NF1 knockdown cells): little apoptosis inducing activity; ER reduction ([1]; treatment with fulvestrant alone): ER reduction was observed clearly"
Cc1nc(NC(=O)N2CCC[C@H]2C(N)=O)sc1-c1ccnc(C(C)(C)C(F)(F)F)c1 [Alpelisib],179,6410,918,6340,1090,> 10000,> 10000,2700,≥ 179,,,,"apoptosis induction (cleaved PARP signal) ([2]; MCF7 NF1 knockdown cells versus control cells): attenuated; apoptosis induction (cleaved PARP signal) ([2]; MCF7 control cells (non-targeting siRNA), single agent): induced apoptosis"
"C=CC(=O)N1CCN(c2nc(=O)n(-c3c(C)ccnc3C(C)C)c3nc(-c4c(O)cccc4F)c(F)cc23)[C@@H](C)C1 [AMG510, sotorasib, reference compound]",,,,,,,,,,> 10000,7.17,> 10000,"T/C ratio (%) ([3]; Day 15): 54%; Number of deaths ([3]; qd Day 1-14, po): 0; Tumor volume (mm^3) Day 15 Mean ± SE ([3]; qd Day 1-14, po): 429.2 ± 60.2 mm^3; Number of deaths [4]: 0; T/C ratio (%) ([4]; Day 13): 46%; Tumor volume (mm^3) Day 13 Mean ± SE ([4]; qd, po): 1067.9 ± 139.4 mm^3"
CC(=O)Nc1cccc(-n2c(=O)n(C3CC3)c(=O)c3c(Nc4ccc(I)cc4F)n(C)c(=O)c(C)c32)c1 [Trametinib],> 2000,> 2000,> 2000,16,40,> 10000,176,40,≥ 16,9,0.739,> 10000,"IC50 (AsPC-1): 0.693 nmol/L; Number of deaths [5]: 0; T/C ratio (%) ([5]; Day 15): 76%; Tumor volume (mm^3) Day 15 Mean ± SE ([5]; qd Day 1-14, po): 1129.3 ± 73.5 mm^3; Number of deaths [6]: 0; T/C ratio (%) ([6]; Day 22): 51%; Tumor volume (mm^3) Day 22 Mean ± SE ([6]; qd Day 1-21, po): 482.5 ± 25.6 mm^3"
